Assays:
[1] = test system: choline acetyltransferase (ChAT); test: choline acetyltransferase (ChAT) activity in rat septal neurons cultured on rat hippocampal astrocyte feeder layer; assay type: cell-based; details: for ChAT activity: compound A 10-1000 nM
Procedure: This experiment was done by a method reported by Pharmacology of Neurotrophic Factors, Ann. Rev. Pharmacol. Toxicol., Vol.37, pages 239-267, (1997).
Astrocytes were obtained from the new-born Sprague-Dawley (SD) rat hippocampus by trypsin digestion and cultured in a serum-containing medium in a culture flask. The confluent astrocytes were harvested and seeded on 96 well plates at the density of 5×10^4 cells/well and served as the feeder layer for neurons after halting the overgrowth with 10 μM cytosine arabinoside. Neurons were taken from the septal area of E17 fetal SD rats by trypsin digestion and seeded on the astrocyte feeder layer at the density of 7.5×10^4 cells/well in a serum-free medium. On the next day, the compound was added to the culture with or without 3 ng/ml recombinant human NGF (rhNGF) and cultured further for 7 days. Then cells were lysed with 5 mM Tris-HCl (pH 7.4)/0.1% Triton X-100 and choline acetyltransferase (ChAT) activity was measured radiometrically by the method of Fonnum.

CA1 neurons = test: 10-min forebrain ischemia (4-vessel occlusion) in rats, number of living CA1 pyramidal cells; assay type: in vivo, rat; details: male Wistar rats, 10-min 4 VO; 10 mg/kg orally 1 hr before and 4 hr after ischemia, then once daily for 6 days; counted 7 days after occlusion; P<0.05
Procedure: Male Wistar rats (Japan Clea Inc., Tokyo, Japan) aged 9 weeks were used. Rats were subjected to 10-min forebrain ischemia using a method reported by Pulsinelli W. A. and Brierley J. B., Stroke, Vol.10, pages 267-272, (1979). Compound A (10 mg/kg) was orally administered 1 hr before and 4 hr after the ischemic operation, and from the next day, it was administered once daily for 6 days.
Rats were sacrificed 7 days after occlusion for histopathological observation. Under deep pentobarbital anesthesia, rats were perfused transcardially with physiological saline solution. The brains were removed, soaked in FAM (formaline:acetic acid:methanol=1:1:8) solution, and embedded in paraffin. Serial coronal sections (6 μm) were cut at the level of the anterior hippocampus, approximately 3.8-4.3 mm posterior to the bregma and stained with hematoxilin and eosin. The number of living pyramidal cells per 250 μm length of CA1 sector were counted under a light microscope. The average of the right and left neuronal densities were defined as the neuronal density for each rat.
Group differences in the number of CA1 pyramidal cells were analyzed using Student t-tests.

[2] = in the presence of 3 ng/ml rhNGF, cultured 7 days (FIG. 2)
[3] = without rhNGF, cultured 7 days, rat septal neurons on astrocyte feeder layer (FIG. 1)

In the case of `Nc1c2c(nc3ccccc13)CCCC2` [tacrine, reference compound], the ChAT activity [1, 2] is reported as “did not affect ChAT activity” and the ChAT activity [1, 3] is reported as “did not affect ChAT activity”.

`O=C(CCC1CCN(Cc2ccccc2)CC1)c1ccc2c(c1)NCCCC2.O=C(O)/C=C/C(=O)O` [compound A, 3-[1-(phenylmethyl)-4-piperidinyl]-1-(2,3,4,5-tetrahydro-1H-1-benzazepin-8-yl)-1-propanone fumarate] was tested, and the “low concentration from which neurotrophic action is shown” value ([1]; ChAT activity in rat septal neurons, with or without rhNGF) was 10 nm, the ChAT activity [1, 2] was “markedly elevated ChAT activity” and the ChAT activity [1, 3] was “apparently increased ChAT activity”. For the same molecule, the “number of CA1 pyramidal cells (survival of CA1 neurons) versus vehicle-treated 4 VO control” value (CA1 neurons) was “significantly greater than that of the vehicle-control”.

— US6500820B1, “Pharmaceutical composition for neurotrophic action” (priority 1998, dated 2002)
